Measurements as given in PubChem BioAssay (NCI).
Values joined by “and” are separate entries in the source; they are usually repeats but may differ in a detail not shown here. Equal entries are not always repeated.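 Where inhibition never reached the appropriate level, the endpoint shown equals the highest concentration tested. Otherwise, values were interpolated linearly from a five-concentration, 48-hour dose response in 96-well plates. GI50 is the concentration that inhibits growth by half. At the TGI there is no net growth.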

What was measured:
Assay in all cases: NCI tumour cell line growth inhibition, 48 h
[1] = test system: PC-3 prostate
[2] = test system: DMS 114 small cell lung
[3] = test system: DMS 273 small cell lung
[4] = test system: OVCAR-8 ovarian
[5] = test system: BT-549 breast
[6] = test system: MDA-MB-435
[7] = test system: SN12K1 renal
[8] = test system: HT29 colon
[9] = test system: RPMI-8226 leukemia
[10] = test system: SR leukemia
[11] = test system: OVCAR-4 ovarian
[12] = test system: DU-145 prostate
[13] = test system: NCI-H23 lung
[14] = test system: SK-OV-3 ovarian
[15] = test system: SW-620 colon
[16] = test system: HCC-2998 colon
[17] = test system: A498 renal
[18] = test system: CAKI-1 renal
[19] = test system: HCT-116 colon
[20] = test system: HCT-15 colon
[21] = test system: MOLT-4 leukemia
[22] = test system: OVCAR-3 ovarian
[23] = test system: M14 melanoma
[24] = test system: MALME-3M melanoma
[25] = test system: SNB-75 CNS
[26] = test system: P388 leukemia
[27] = test system: MDA-N
[28] = test system: K-562 leukemia
[29] = test system: U251 CNS
[30] = test system: TK-10 renal
[31] = test system: RXF 393 renal
[32] = test system: SF-295 CNS
[33] = test system: SF-539 CNS
[34] = test system: SNB-19 CNS
[35] = test system: UO-31 renal
[36] = test system: EKVX NSCLC
[37] = test system: M19-MEL melanoma
[38] = test system: HS 578T breast
[39] = test system: HL-60(TB) leukemia
[40] = test system: SF-268 CNS
[41] = test system: NCI/ADR-RES ovarian
[42] = test system: CCRF-CEM leukemia
[43] = test system: SN12C renal
[44] = test system: T-47D breast
[45] = test system: A549 NSCLC
[46] = test system: COLO 205 colon
[47] = test system: P388/ADR leukemia
[48] = test system: HOP-92 NSCLC
[49] = test system: OVCAR-5 ovarian
[50] = test system: NCI-H460 lung
[51] = test system: SK-MEL-2 melanoma
[52] = test system: XF 498 CNS
[53] = test system: LOX IMVI melanoma
[54] = test system: HOP-18 NSCLC
[55] = test system: HOP-62 NSCLC
[56] = test system: DLD-1 colon
[57] = test system: KM20L2 colon
[58] = test system: IGROV1 ovarian
[59] = test system: MCF7 breast
[60] = test system: UACC-62 melanoma

C=Cc1cc(OC)c2c(c1)c(=O)oc1c2cc(OC)c2c(O)ccc(C3OC(C)C(O)C(C)(O)C3O)c21 (stereo unspecified)
TGI [1]: 4.05 nM | TGI [2]: 39.3 nM | TGI [3]: 139 nM | GI50 [4]: 0.476 nM | TGI [5]: 7.58 nM | TGI [6]: 3.65 nM | TGI [7]: 131 nM | GI50 [8]: 0.815 nM | TGI [8]: 666 nM | GI50 [9]: 0.432 nM | TGI [10]: 0.187 nM | GI50 [11]: 2.15 nM | TGI [12]: 8.97 nM | GI50 [13]: 0.113 nM | GI50 [14]: 0.565 nM | GI50 [15]: 0.502 nM | GI50 [16]: 2.53 nM | GI50 [17]: 1.21 nM | GI50 [18]: 2.24 nM | TGI [18]: 91.6 nM | GI50 [19]: 0.308 nM | GI50 [20]: 0.552 nM | TGI [20]: 467 nM | GI50 [21]: 0.0198 nM | GI50 [22]: 1.81 nM | TGI [23]: 1.62 nM | GI50 [24]: 1.53 nM | GI50 [25]: 0.41 nM | TGI [26]: 529 nM | TGI [27]: 4.25 nM | GI50 [28]: 0.37 nM | TGI [28]: 947 nM | GI50 [29]: 0.187 nM | TGI [30]: 8.55 nM | GI50 [31]: 0.174 nM | GI50 [32]: 0.699 nM | TGI [32]: 9.9 nM and 59.3 nM | GI50 [33]: 0.153 nM | GI50 [34]: 1.51 nM | TGI [34]: 733 nM | GI50 [35]: 1.84 nM | GI50 [36]: 0.589 nM | TGI [37]: 160 nM | TGI [38]: 6.83 nM | TGI [39]: 25.6 nM | GI50 [40]: 0.148 nM | GI50 [41]: 0.659 nM | GI50 [42]: 0.0129 nM | GI50 [43]: 1.49 nM | TGI [44]: 4.39 nM | GI50 [45]: 0.716 nM | TGI [45]: 376 nM | TGI [46]: 409 nM | TGI [47]: 804 nM | GI50 [48]: 0.215 nM | TGI [48]: 240 nM | GI50 [49]: 0.251 nM | GI50 [50]: 0.484 nM | TGI [50]: 6.52 nM and 58.4 nM | GI50 [51]: 1.34 nM | TGI [52]: 37.3 nM | GI50 [53]: 0.281 nM | TGI [54]: 392 nM | GI50 [55]: 0.0967 nM | TGI [56]: 1070 nM | TGI [57]: 161 nM | GI50 [58]: 1.43 nM | TGI [58]: 1080 nM | GI50 [59]: 0.0358 nM | TGI [59]: 360 nM | GI50 [60]: 1.2 nM
